#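 Following 48 hours of exposure in 96-well plates, responses at five concentrations were used to interpolate endpoints linearly. TGI: total growth inhibition.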
# Tests used:
# Assay in all cases: NCI-60 cell line screen, 48 h
# MOLT-4 leukemia = tested on: MOLT-4 leukemia
# KM12 colon = tested on: KM12 colon
# HOP-92 NSCLC = tested on: HOP-92 NSCLC
# NCI/ADR-RES ovarian = tested on: NCI/ADR-RES ovarian
# HL-60(TB) leukemia = tested on: HL-60(TB) leukemia
# HS 578T breast = tested on: HS 578T breast
# NCI-H460 lung = tested on: NCI-H460 lung
# UO-31 renal = tested on: UO-31 renal
# U251 CNS = tested on: U251 CNS
# DU-145 prostate = tested on: DU-145 prostate
# UACC-62 melanoma = tested on: UACC-62 melanoma
# LOX IMVI melanoma = tested on: LOX IMVI melanoma
# SN12C renal = tested on: SN12C renal
# OVCAR-4 ovarian = tested on: OVCAR-4 ovarian
# CCRF-CEM leukemia = tested on: CCRF-CEM leukemia
# NCI-H522 lung = tested on: NCI-H522 lung
# SR leukemia = tested on: SR leukemia
# MCF7 breast = tested on: MCF7 breast
# 786-0 renal = tested on: 786-0 renal
# CAKI-1 renal = tested on: CAKI-1 renal
# RPMI-8226 leukemia = tested on: RPMI-8226 leukemia
# SF-539 CNS = tested on: SF-539 CNS
# NCI-H226 lung = tested on: NCI-H226 lung
# HCT-116 colon = tested on: HCT-116 colon
# IGROV1 ovarian = tested on: IGROV1 ovarian
# OVCAR-3 ovarian = tested on: OVCAR-3 ovarian
# SK-OV-3 ovarian = tested on: SK-OV-3 ovarian
# MDA-MB-231 breast = tested on: MDA-MB-231 breast
# UACC-257 melanoma = tested on: UACC-257 melanoma
# SK-MEL-2 melanoma = tested on: SK-MEL-2 melanoma
# SW-620 colon = tested on: SW-620 colon
# NCI-H23 lung = tested on: NCI-H23 lung
# MDA-MB-435 = tested on: MDA-MB-435
# TK-10 renal = tested on: TK-10 renal
# HOP-62 NSCLC = tested on: HOP-62 NSCLC
# T-47D breast = tested on: T-47D breast
# K-562 leukemia = tested on: K-562 leukemia
# BT-549 breast = tested on: BT-549 breast
# HCT-15 colon = tested on: HCT-15 colon
# COLO 205 colon = tested on: COLO 205 colon
# MALME-3M melanoma = tested on: MALME-3M melanoma
# A498 renal = tested on: A498 renal
# PC-3 prostate = tested on: PC-3 prostate
# EKVX NSCLC = tested on: EKVX NSCLC
# OVCAR-5 ovarian = tested on: OVCAR-5 ovarian
# ACHN renal = tested on: ACHN renal
# SK-MEL-5 melanoma = tested on: SK-MEL-5 melanoma
# A549 NSCLC = tested on: A549 NSCLC
# SK-MEL-28 melanoma = tested on: SK-MEL-28 melanoma
# HCC-2998 colon = tested on: HCC-2998 colon
# SNB-75 CNS = tested on: SNB-75 CNS
# M14 melanoma = tested on: M14 melanoma
# SNB-19 CNS = tested on: SNB-19 CNS
# RXF 393 renal = tested on: RXF 393 renal
# OVCAR-8 ovarian = tested on: OVCAR-8 ovarian
# HT29 colon = tested on: HT29 colon
# SF-295 CNS = tested on: SF-295 CNS
# MDA-N = tested on: MDA-N
# SF-268 CNS = tested on: SF-268 CNS
# HOP-18 NSCLC = tested on: HOP-18 NSCLC
# KM20L2 colon = tested on: KM20L2 colon
# M19-MEL melanoma = tested on: M19-MEL melanoma
# DMS 273 small cell lung = tested on: DMS 273 small cell lung
# DLD-1 colon = tested on: DLD-1 colon
# DMS 114 small cell lung = tested on: DMS 114 small cell lung
compound,measurement,setting,value
CC(C)=NOC(=O)CNC(=O)C(Cc1ccccc1)NC(=O)C(C)NC(=O)OC(C)(C)C (stereo not given),TGI,MOLT-4 leukemia,> 100 µM
same,TGI,KM12 colon,> 100 µM
same,TGI,HOP-92 NSCLC,> 100 µM
same,TGI,NCI/ADR-RES ovarian,> 100 µM
same,TGI,HL-60(TB) leukemia,> 100 µM
same,TGI,HS 578T breast,> 100 µM
same,TGI,NCI-H460 lung,> 100 µM
same,TGI,UO-31 renal,> 100 µM
same,TGI,U251 CNS,> 100 µM
same,TGI,DU-145 prostate,> 100 µM
same,TGI,UACC-62 melanoma,> 100 µM
same,TGI,LOX IMVI melanoma,> 100 µM
same,TGI,SN12C renal,> 100 µM
same,TGI,OVCAR-4 ovarian,> 100 µM
same,TGI,CCRF-CEM leukemia,> 100 µM
same,TGI,NCI-H522 lung,> 100 µM
same,TGI,SR leukemia,> 100 µM
same,TGI,MCF7 breast,> 100 µM
same,TGI,786-0 renal,> 100 µM
same,TGI,CAKI-1 renal,> 100 µM
same,TGI,RPMI-8226 leukemia,> 100 µM
same,TGI,SF-539 CNS,> 100 µM
same,TGI,NCI-H226 lung,> 100 µM
same,TGI,HCT-116 colon,> 100 µM
same,TGI,IGROV1 ovarian,> 100 µM
same,TGI,OVCAR-3 ovarian,> 100 µM
same,TGI,SK-OV-3 ovarian,> 100 µM
same,TGI,MDA-MB-231 breast,> 100 µM
same,TGI,UACC-257 melanoma,> 100 µM
same,TGI,SK-MEL-2 melanoma,> 100 µM
same,TGI,SW-620 colon,> 100 µM
same,TGI,NCI-H23 lung,> 100 µM
same,TGI,MDA-MB-435,> 100 µM
same,TGI,TK-10 renal,> 100 µM
same,TGI,HOP-62 NSCLC,> 100 µM
same,TGI,T-47D breast,> 100 µM
same,TGI,K-562 leukemia,> 100 µM
same,TGI,BT-549 breast,> 100 µM
same,TGI,HCT-15 colon,> 100 µM
same,TGI,COLO 205 colon,> 100 µM
same,TGI,MALME-3M melanoma,> 100 µM
same,TGI,A498 renal,> 100 µM
same,TGI,PC-3 prostate,> 100 µM
same,TGI,EKVX NSCLC,> 100 µM
same,TGI,OVCAR-5 ovarian,> 100 µM
same,TGI,ACHN renal,> 100 µM
same,TGI,SK-MEL-5 melanoma,> 100 µM
same,TGI,A549 NSCLC,> 100 µM
same,TGI,SK-MEL-28 melanoma,> 100 µM
same,TGI,HCC-2998 colon,> 100 µM
same,TGI,SNB-75 CNS,> 100 µM
same,TGI,M14 melanoma,> 100 µM
same,TGI,SNB-19 CNS,> 100 µM
same,TGI,RXF 393 renal,> 100 µM
same,TGI,OVCAR-8 ovarian,> 100 µM
same,TGI,HT29 colon,> 100 µM
same,TGI,SF-295 CNS,> 100 µM
same,TGI,MDA-N,> 100 µM
same,TGI,SF-268 CNS,> 100 µM
C[N+](C)(C)CC1CCCCC1=O (stereo not given),TGI,MOLT-4 leukemia,35.3 µM
same,TGI,KM12 colon,> 100 µM
same,TGI,HL-60(TB) leukemia,34.7 µM
same,TGI,NCI-H460 lung,> 100 µM
same,TGI,UO-31 renal,> 100 µM
same,TGI,U251 CNS,> 100 µM
same,TGI,UACC-62 melanoma,34 µM
same,TGI,LOX IMVI melanoma,27.5 µM
same,TGI,SN12C renal,> 100 µM
same,TGI,CCRF-CEM leukemia,20.2 µM
same,TGI,NCI-H522 lung,36.2 µM
same,TGI,HOP-18 NSCLC,30.4 µM
same,TGI,786-0 renal,> 100 µM
same,TGI,RPMI-8226 leukemia,44.7 µM
same,TGI,SF-539 CNS,> 100 µM
same,TGI,NCI-H226 lung,> 100 µM
same,TGI,HCT-116 colon,31.5 µM
same,TGI,IGROV1 ovarian,> 100 µM
same,TGI,OVCAR-3 ovarian,34.5 µM
same,TGI,KM20L2 colon,4.65 µM
same,TGI,SK-OV-3 ovarian,> 100 µM
same,TGI,M19-MEL melanoma,35.2 µM
same,TGI,UACC-257 melanoma,30.9 µM
same,TGI,SW-620 colon,29.7 µM
same,TGI,NCI-H23 lung,40.8 µM
same,TGI,TK-10 renal,> 100 µM
same,TGI,HOP-62 NSCLC,> 100 µM
same,TGI,DMS 273 small cell lung,> 100 µM
same,TGI,K-562 leukemia,64.3 µM
same,TGI,HCT-15 colon,29 µM
same,TGI,COLO 205 colon,49.3 µM
same,TGI,MALME-3M melanoma,38.6 µM
same,TGI,EKVX NSCLC,57.5 µM
same,TGI,ACHN renal,34.4 µM
same,TGI,SK-MEL-5 melanoma,80.3 µM
same,TGI,A549 NSCLC,> 100 µM
same,TGI,SK-MEL-28 melanoma,31.6 µM
same,TGI,DLD-1 colon,39.2 µM
same,TGI,SNB-75 CNS,81.2 µM
same,TGI,M14 melanoma,30.2 µM
same,TGI,SNB-19 CNS,> 100 µM
same,TGI,RXF 393 renal,33.8 µM
same,TGI,OVCAR-8 ovarian,41.1 µM
same,TGI,DMS 114 small cell lung,> 100 µM
same,TGI,HT29 colon,38.3 µM
same,TGI,SF-295 CNS,> 100 µM

# — PubChem BioAssay (NCI)
